In patent publication US10040788B2, “1,3,4-thiadiazole compounds and their use in treating cancer” (AstraZeneca AB, priority 2014, dated 2018) one finds IC50 data, which are given here for 17 compounds.

For one test, the target named is GLS1 (Homo sapiens (Human), UniProt O94925). As to the kind of experiment: GLS Enzyme Potency Assay (Glutamate Oxidase/AmplexRed coupled assay). The note with it: 6His tagged GLS protein (amino acids 63-669); geometric mean where repeated. Format: biochemical. An excerpt:
The following assays were used to measure the effects of the compounds of the present invention: a) GLS Enzyme Potency Assay; b) GLS Cell Potency Assay; c) GLS Cell Proliferation Assay; and d) Mouse Xenograft Model. During the description of the assays, generally: • i. The following abbreviations have been used: CO2=Carbon dioxide; DMEM=Dulbecco's Modified Eagle Medium; DMSO=Dimethyl sulphoxide; EDTA=Ethylenediaminetetraacetic acid; EGTA=Ethylene glycol tetraacetic acid; FCS=Foetal calf serum; h=Hour(s); NBS=Non-binding surface; SDS=Sodium dodecyl sulphate; r.t.=room temperature; TRIS=Tris(Hydroxymethyl)aminomethane. • ii. IC50 values were calculated using a smart fitting model in Genedata. […] Assay a): GLS Enzyme Potency Assay
A Glutamate Oxidase/AmplexRed coupled assay was used to measure the ability of compounds to bind to and inhibit the activity of GLS1 in vitro. […] GLS1 was diluted to 2× working concentration and incubated at r.t. to allow the tetrameric/dimeric forms to reach steady state. Assay measurements were performed in buffer comprising 50 mM TRIS pH 7.8, 100 mM NaPO4, pH 7.8, 0.001% v/v Tween20. […] DMSO concentration was maintained at 2% by back filling with DMSO solution. […] 3 μL of 100 mM glutamine diluted in assay buffer was then added and the reaction incubated at r.t. for 60 minutes. […] An artefact version of the assay where the 6His tagged GLS protein and glutamine were replaced with assay buffer was also used to rule out non specific effects on the assay components.

Another test addresses cellular GLS activity (Homo sapiens (Human), UniProt O94925). The test can be described thus: GLS Cell Potency Assay (PC3 coupled assay measuring cellular glutamate depletion). The format is cell-based. The note with it: PC3 cells, 6 h incubation, cellular glutamate depletion; geometric mean where repeated; read-out: Assay b) GLS Cell Potency Assay IC50. An excerpt:
(§1) The following assays were used to measure the effects of the compounds of the present invention: a) GLS Enzyme Potency Assay; b) GLS Cell Potency Assay; c) GLS Cell Proliferation Assay; and d) Mouse Xenograft Model. During the description of the assays, generally: • i. The following abbreviations have been used: CO2=Carbon dioxide; DMEM=Dulbecco's Modified Eagle Medium; DMSO=Dimethyl sulphoxide; EDTA=Ethylenediaminetetraacetic acid; EGTA=Ethylene glycol tetraacetic acid; FCS=Foetal calf serum; h=Hour(s); NBS=Non-binding surface; SDS=Sodium dodecyl sulphate; r.t.=room temperature; TRIS=Tris(Hydroxymethyl)aminomethane. • ii. […]
Compounds were assessed for their potential to inhibit cellular GLS activity by use of a PC3 coupled assay measuring cellular glutamate depletion. […] DMSO concentration was maintained at 0.3% by back filling with DMSO solution. PC3 cells were grown in phenol free DMEM, 10% dialyzed FCS, 2 mM glutamine and following dispersal by trypsinisation were plated at 5.6×10^3 cells per well in 40 μl of growth medium directly into the 384 well assay plates containing dispensed compound. After incubation for 6 h at 37° C., 5% CO2 growth media was aspirated and cells lysed in 15 μl of buffer containing 10 mM TRIS pH7.4, 100 mM NaCl, 1 mM EDTA, 1 mM EGTA, 1 mM NaF, 20 mM Na4P2O7, 2 mM Na3VO4, 1% Triton X-100, 10% glycerol, 0.1% SDS and 0.5% deoxycholate.

The test system of a further test is NCI-H1703 cells. As to the kind of experiment: GLS Cell Proliferation Assay (NCI-H1703). The format is cell-based, human. The note with it: Homo sapiens, 120 h; NCI-H1703 cells, 5 days incubation; geometric mean where repeated; read-out: Assay c) GLS Cell Proliferation Assay.
Excerpt: as §1
The ability of compounds to inhibit cell growth was measured using a 384 well plate NCI-H1703 cell proliferation assay. NCI-H1703 cells were grown in phenol red free RPMI1640, 10% FCS and 2 mM glutamine and seeded at a density of 750 cells per well in 40 μl of growth medium into clear-bottom 384 well assay plates (Corning product code 3712) and incubated for 24 h at 37° C., 5% CO2. […] DMSO concentration was maintained at 0.3% by back filling with DMSO solution. Plates were incubated for 5 days at 37° C., 5% CO2, Sytox Green and Saponin added to final concentration of 2 μM and 0.25% respectively and incubated for 6 h prior to analysis. Plates were read on an Acumen eX3 (TTP Labtech) using 488 nm excitation and FITC filter set (500-530 nm) for emission. IC50 values were calculated by curve fitting to max inhibition of day zero growth using GeneData software analysis.

Chain of GLS1 (O94925 63-669): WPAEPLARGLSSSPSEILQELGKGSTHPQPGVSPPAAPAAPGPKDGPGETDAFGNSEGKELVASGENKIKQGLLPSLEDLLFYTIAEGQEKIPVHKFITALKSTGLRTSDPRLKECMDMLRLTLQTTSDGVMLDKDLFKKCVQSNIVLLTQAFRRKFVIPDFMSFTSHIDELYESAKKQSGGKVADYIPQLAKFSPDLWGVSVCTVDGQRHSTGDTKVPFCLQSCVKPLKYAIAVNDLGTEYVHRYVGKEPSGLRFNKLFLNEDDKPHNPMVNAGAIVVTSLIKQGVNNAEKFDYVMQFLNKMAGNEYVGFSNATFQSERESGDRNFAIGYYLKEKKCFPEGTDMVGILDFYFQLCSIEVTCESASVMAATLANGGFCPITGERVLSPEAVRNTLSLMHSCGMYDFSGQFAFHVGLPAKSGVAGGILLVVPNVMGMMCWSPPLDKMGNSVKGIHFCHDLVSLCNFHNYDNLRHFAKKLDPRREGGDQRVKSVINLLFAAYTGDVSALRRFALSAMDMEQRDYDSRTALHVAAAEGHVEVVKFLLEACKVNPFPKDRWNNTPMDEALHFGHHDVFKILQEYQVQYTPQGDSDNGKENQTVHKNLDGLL
Chain of cellular GLS activity (O94925 55-669): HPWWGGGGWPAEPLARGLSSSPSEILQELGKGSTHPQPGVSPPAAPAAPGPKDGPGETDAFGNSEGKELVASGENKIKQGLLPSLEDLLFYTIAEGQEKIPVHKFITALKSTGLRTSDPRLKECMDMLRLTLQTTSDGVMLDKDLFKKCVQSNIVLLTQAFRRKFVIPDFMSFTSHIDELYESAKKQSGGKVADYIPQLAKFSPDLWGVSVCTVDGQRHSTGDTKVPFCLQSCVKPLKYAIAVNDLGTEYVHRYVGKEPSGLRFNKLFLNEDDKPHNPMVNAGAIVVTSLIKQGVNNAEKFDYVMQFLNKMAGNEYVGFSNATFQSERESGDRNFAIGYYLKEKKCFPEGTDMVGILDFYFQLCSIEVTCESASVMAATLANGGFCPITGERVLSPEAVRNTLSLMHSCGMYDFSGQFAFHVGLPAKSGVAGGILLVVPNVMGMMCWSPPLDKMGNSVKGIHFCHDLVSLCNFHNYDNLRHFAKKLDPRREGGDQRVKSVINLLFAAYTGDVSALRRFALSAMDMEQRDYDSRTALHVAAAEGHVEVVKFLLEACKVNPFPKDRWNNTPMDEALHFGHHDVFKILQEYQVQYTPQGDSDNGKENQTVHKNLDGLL

On to `CCO[C@@H](C(=O)Nc1nnc(N[C@@H]2CCN(c3cccnn3)C2)s1)c1ccccc1` [Example 10(b), (2R)-2-Ethoxy-2-phenyl-N-[5-[[(3R)-1-pyridazin-3-ylpyrrolidin-3-yl]amino]-1,3,4-thiadiazol-2-yl]acetamide], for which the IC50 on GLS1 turned out to be 110 nM; on cellular GLS activity, 13 nM; with NCI-H1703 cells, 234 nM.
On to `COc1cccc([C@@H](OC)C(=O)Nc2nnc(N[C@@H]3CCN(c4cncnn4)C3)s2)c1` [21(b), (2R)-2-methoxy-2-(3-methoxyphenyl)-N-[5-[[(3R)-1-(1,2,4-triazin-6-yl)pyrrolidin-3-yl]amino]-1,3,4-thiadiazol-2-yl]acetamide], for which the figures for the IC50 against GLS1, on cellular GLS activity and in the test with NCI-H1703 cells were 46.9 nM, 0.35 nM and 1.78 nM, respectively.
On the same counts, the results for `CCO[C@@H](C(=O)Nc1nnc(N[C@@H]2CCN(c3nccnn3)C2)s1)c1ccc(F)c(OC)c1` [33(b), (2R)-2-ethoxy-2-(4-fluoro-3-methoxy-phenyl)-N-[5-[[(3R)-1-(1,2,4-triazin-3-yl)pyrrolidin-3-yl]amino]-1,3,4-thiadiazol-2-yl]acetamide] are 1970 nM, 690 nM and 5540 nM.
On the same counts, the results for `COc1ccc([C@H](OC)C(=O)Nc2nnc(N[C@@H]3CCN(c4cccnn4)C3)s2)cc1OC` [25(a), (2S)-2-(3,4-dimethoxyphenyl)-2-methoxy-N-[5-[[(3R)-1-pyridazin-3-ylpyrrolidin-3-yl]amino]-1,3,4-thiadiazol-2-yl]acetamide] are 35.4 nM, 1.81 nM and 68.5 nM.
On the same counts, the results for `COc1cc([C@@H](OC)C(=O)Nc2nnc(N[C@@H]3CCN(c4nccnn4)C3)s2)ccc1F` [32(b), (2R)-2-(4-fluoro-3-methoxy-phenyl)-2-methoxy-N-[5-[[(3R)-1-(1,2,4-triazin-3-yl)pyrrolidin-3-yl]amino]-1,3,4-thiadiazol-2-yl]acetamide] are 70.7 nM, 4.99 nM and 107 nM.
As to `COc1cccc([C@H](OC)C(=O)Nc2nnc(N[C@@H]3CCN(c4nccnn4)C3)s2)c1` [Example 4(a), (2S)-2-Methoxy-2-(3-methoxyphenyl)-N-[5-[[(3R)-1-(1,2,4-triazin-3-yl)pyrrolidin-3-yl]amino]-1,3,4-thiadiazol-2-yl]acetamide], the figures for the IC50 on GLS1, at cellular GLS activity and in the test on NCI-H1703 cells were 35.5 nM, 1.51 nM and 5.01 nM, respectively.
Take `CCO[C@@H](C(=O)Nc1nnc(N[C@@H]2CCN(c3nccnn3)C2)s1)c1cccc(OC)c1` [27(b), (2R)-2-ethoxy-2-(3-methoxyphenyl)-N-[5-[[(3R)-1-(1,2,4-triazin-3-yl)pyrrolidin-3-yl]amino]-1,3,4-thiadiazol-2-yl]acetamide]: the IC50 against GLS1 was found to be 844 nM; at cellular GLS activity it was 19.5 nM; in the test on NCI-H1703 cells, 337 nM.
As for `COc1ccc([C@H](OC)C(=O)Nc2nnc(N[C@@H]3CCN(c4cccnn4)C3)s2)cc1` [Example 11, (2S)-2-Methoxy-2-(4-methoxyphenyl)-N-[5-[[(3R)-1-pyridazin-3-ylpyrrolidin-3-yl]amino]-1,3,4-thiadiazol-2-yl]acetamide], the IC50 amounted to 31 nM at GLS1, 0.401 nM at cellular GLS activity and 10.8 nM in the test on NCI-H1703 cells.
Turning to `CCO[C@H](C(=O)Nc1nnc(N[C@@H]2CCN(c3nccnn3)C2)s1)c1ccc(OC)cc1` [29(a), (2S)-2-ethoxy-2-(4-methoxyphenyl)-N-[5-[[(3R)-1-(1,2,4-triazin-3-yl)pyrrolidin-3-yl]amino]-1,3,4-thiadiazol-2-yl]acetamide], the values for the IC50 against GLS1, at cellular GLS activity and with NCI-H1703 cells were 108 nM, 5.42 nM and 125 nM, respectively.
On the same counts, the results for `CO[C@H](C(=O)Nc1nnc(N[C@@H]2CCN(c3cncnn3)C2)s1)c1ccccc1` [Example 3, (2S)-2-Methoxy-2-phenyl-N-[5-[[(3R)-1-(1,2,4-triazin-6-yl)pyrrolidin-3-yl]amino]-1,3,4-thiadiazol-2-yl]acetamide] are 29 nM, 0.39 nM and 3.24 nM.
On the same counts, the results for `COc1cc([C@H](OC)C(=O)Nc2nnc(N[C@@H]3CCN(c4nccnn4)C3)s2)ccc1F` [32(a), (2S)-2-(4-fluoro-3-methoxy-phenyl)-2-methoxy-N-[5-[[(3R)-1-(1,2,4-triazin-3-yl)pyrrolidin-3-yl]amino]-1,3,4-thiadiazol-2-yl]acetamide] are 2460 nM, 300 nM and 2960 nM.
On the same counts, the results for `CCO[C@@H](C(=O)Nc1nnc(N[C@@H]2CCN(c3cccnn3)C2)s1)c1ccc(F)c(OC)c1` [31(b), (2R)-2-ethoxy-2-(4-fluoro-3-methoxy-phenyl)-N-[5-[[(3R)-1-pyridazin-3-ylpyrrolidin-3-yl]amino]-1,3,4-thiadiazol-2-yl]acetamide] are 86.2 nM, 33.3 nM and 624 nM.
In the case of `CCO[C@@H](C(=O)Nc1nnc(N[C@@H]2CCN(c3cccnn3)C2)s1)c1ccc(F)cc1` [Example 13(b), (2R)-2-Ethoxy-2-(4-fluorophenyl)-N-[5-[[(3R)-1-pyridazin-3-ylpyrrolidin-3-yl]amino]-1,3,4-thiadiazol-2-yl]acetamide], the IC50 was determined as 170 nM against GLS1, 14 nM on cellular GLS activity and 560 nM in the test on NCI-H1703 cells.
Take `COc1ccc([C@H](OC)C(=O)Nc2nnc(N[C@@H]3CCN(c4nccnn4)C3)s2)cc1` [Example 24, (2S)-2-methoxy-2-(4-methoxyphenyl)-N-[5-[[(3R)-1-(1,2,4-triazin-3-yl)pyrrolidin-3-yl]amino]-1,3,4-thiadiazol-2-yl]acetamide]: the IC50 on GLS1 amounted to 74.7 nM; at cellular GLS activity, 4.58 nM; with NCI-H1703 cells, 118 nM.
On the same counts, the results for `CO[C@H](C(=O)Nc1nnc(N[C@@H]2CCN(c3nccnn3)C2)s1)c1cccc(OC(F)F)c1` [Example 6(a), (2S)-2-[3-(Difluoromethoxy)phenyl]-2-methoxy-N-[5-[[(3R)-1-(1,2,4-triazin-3-yl)pyrrolidin-3-yl]amino]-1,3,4-thiadiazol-2-yl]acetamide] are 85.1 nM, 2.57 nM and 16.6 nM.
On to `CCO[C@@H](C(=O)Nc1nnc(N[C@@H]2CCN(c3nccnn3)C2)s1)c1ccc(OC)cc1` [29(b), (2R)-2-ethoxy-2-(4-methoxyphenyl)-N-[5-[[(3R)-1-(1,2,4-triazin-3-yl)pyrrolidin-3-yl]amino]-1,3,4-thiadiazol-2-yl]acetamide], for which the IC50 against GLS1 was 1370 nM; on cellular GLS activity, 134 nM; with NCI-H1703 cells, 1960 nM.
On to `CCO[C@@H](C(=O)Nc1nnc(N[C@@H]2CCN(c3nccnn3)C2)s1)c1ccc(F)cc1` [35(b), (2R)-2-ethoxy-2-(4-fluorophenyl)-N-[5-[[(3R)-1-(1,2,4-triazin-3-yl)pyrrolidin-3-yl]amino]-1,3,4-thiadiazol-2-yl]acetamide], for which the IC50 on GLS1 amounted to 155 nM; on cellular GLS activity, 18.7 nM; in the test on NCI-H1703 cells it was 404 nM.
